Experimental data: US6982257B1, “Vitamin D3 derivative and its production method” (Teijin Limited, priority 1997, dated 2006)
Values belong to the compound of their own block, whether it stands above or below them.

Tests used:
[1] = system: HL-60 cell; assay: Differentiation induction of HL-60 cell, nitroblue tetrazolium (NBT) reduction activity; format: cell-based; settings: HL-60, 4 days culture
Description: Activities of Objective Compounds of the Present Invention on Differentiation Induction effect of HL-60 Cell
HL-60 cell was purchased from a cell bank (Japanese Cancer Research Resource Bank, Cell Number: JCRB 0085). The cell was stored as a frozen storage stock for preventing the change of cell characteristics attributable to successive cultivation. Before the initiation of experiments, the cell was defrosted, and successive cultivation was started for using the cell in the experiments. The cell which had been treated by successive culturing for about one to six months was used for the experiments. The successive culturing was carried out by centrifugally recovering cells from cultivation mixture in suspension culture, and diluting the collected cell concentrate in a fresh culture medium at a ratio of about 1/100 (1−2×10^5 cells/ml). As the culture medium, an RPMI-1640 medium containing 10% fetal bovine serum was used. Successively cultured cells were centrifugally collected, and they were dispersed in a culture medium at the concentration of 2×10^4 cells/ml. The dispersion was seeded into a 24-well culture petri dish at 1 ml/well. An ethanol solution (1×10^−9M to 1×10^−6M) of a compound of the present invention was added to this system at 1 μl/well. Further, regarding 1 α,25(OH)2D3, an ethanol solution of 1×10^−7 M to 1×10^−4 M was added at 1 μl/well, and for the control, ethanol was added at 1 μl/well. After culturing at 37° C. for 4 days under a 5% CO2 atmosphere, the cells were centrifugally collected. Nitroblue tetrazolium (NBT) reduction activity was determined as follows. That is, the collected cells were suspended in a fresh culture medium, and NBT and 12-O-tetradecanoylphorbol-13-acetate were added to the resultant suspension so that their concentrations became 0.1% and 100 nM, respectively. After the mixed suspension was incubated at 37° C. for 25 min, a cytospin sample was prepared. After air drying, it was stained with Kernechtrot, and the ratio of the positive cells of NBT reduction activity was determined under an optical microscope.
Activities of Compounds of the Present Invention on Nitroblue Tetrazolium

[2] = biological target: T1, bovine thymus 1α,25-dihydroxyvitamin D3 receptor (VDR) (Bos taurus, UniProt Q28037); settings: relative intensity ratio based on 100 for 1α,25-dihydroxyvitamin D3, from the concentration inhibiting [3H]1α,25-dihydroxyvitamin D3 (0.1 nM) binding by 50%
T1 sequence (Q28037 1-426): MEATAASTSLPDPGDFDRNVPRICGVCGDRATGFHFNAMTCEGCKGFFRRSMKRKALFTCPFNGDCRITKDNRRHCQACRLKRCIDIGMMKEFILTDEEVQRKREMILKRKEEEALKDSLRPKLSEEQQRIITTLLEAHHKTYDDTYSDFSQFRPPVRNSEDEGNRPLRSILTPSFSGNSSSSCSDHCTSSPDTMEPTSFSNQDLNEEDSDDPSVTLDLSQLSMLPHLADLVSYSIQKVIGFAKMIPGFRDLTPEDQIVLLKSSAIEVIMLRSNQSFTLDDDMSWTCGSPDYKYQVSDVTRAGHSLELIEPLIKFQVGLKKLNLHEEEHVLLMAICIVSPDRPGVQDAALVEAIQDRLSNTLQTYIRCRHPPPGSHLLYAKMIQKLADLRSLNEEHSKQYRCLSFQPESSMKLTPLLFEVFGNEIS
Description: The content (about 25 mg) of an ampule of a bovine thymus vitamin D receptor kit made by Yamasa Shoyu Ltd. was dissolved in 55 ml of a 0.05 M phosphoric acid-0.5 M potassium buffer solution (pH 7.4). Fifty μl of the ethanol solution of a compound to be tested and 500 μl of the receptor solution were pre-incubated at room temperature for 1 hr. […] To 500 μl of the supernatant, 9.5 ml of a liquid scintillation cocktail (ACS-II) was added, and the radioactivity of the resultant mixture was measured by a liquid scintillation counter.

SMILES: C=C1C(=CC=C2CCCC3(C)C2CCC3C(C)CCCC(C)(C)O)CC(O)C(C)C1O [Compound (72), (20S)-1α,25-dihydroxy-2α-methyl-3β-vitamin D3]
Positive cells (%) of nitroblue tetrazolium reduction activity ([1]; concentration 10^−9 M): 96.2 ± 2.0%
Positive cells (%) of nitroblue tetrazolium reduction activity ([1]; concentration 10^−10 M): 95.7 ± 2.3%
Positive cells (%) of nitroblue tetrazolium reduction activity ([1]; concentration 10^−11 M): 94.4 ± 1.8%
Positive cells (%) of nitroblue tetrazolium reduction activity ([1]; concentration 10^−12 M): 3.7 ± 0.8%
Binding Affinity for VDR [2]: 1200

SMILES: C=C1C(=CC=C2CCCC3(C)C2CCC3C(C)CCCC(C)(C)O)CC(O)C(C)C1O [Compound (5), (20R)-1β,25-dihydroxy-2α-methyl-3β vitamin D3, reference compound]
Binding Affinity for VDR [2]: 0.05

SMILES: C=C1C(=CC=C2CCCC3(C)C2CCC3C(C)CCCC(C)(C)O)CC(O)C(C)C1O [Compound (4), (20R)-1α,25-dihydroxy-2α-methyl-3β vitamin D3, reference compound]
Binding Affinity for VDR [2]: 400

Binding Affinity for VDR [2]: 0.05
SMILES: C=C1/C(=C\C=C2/CCC[C@]3(C)[C@@H]([C@@H](C)CCCC(C)(C)O)CC[C@@H]23)C[C@@H](O)[C@H](C)[C@H]1O [Compound (73), (20S)-1β,25-dihydroxy-2α-methyl-3β-vitamin D3]

Binding Affinity for VDR [2]: 17
SMILES: C=C1/C(=C\C=C2/CCC[C@]3(C)[C@@H]([C@@H](C)CCCC(C)(C)O)CC[C@@H]23)C[C@H](O)[C@H](C)[C@@H]1O [Compound (74), (20S)-1α,25-dihydroxy-2α-methyl-3α-vitamin D3]
Positive cells (%) of nitroblue tetrazolium reduction activity ([1]; concentration 10^−9 M): 96.4 ± 1.4%
Positive cells (%) of nitroblue tetrazolium reduction activity ([1]; concentration 10^−10 M): 16.7 ± 1.1%
Positive cells (%) of nitroblue tetrazolium reduction activity ([1]; concentration 10^−11 M): 17.0 ± 2.3%
Positive cells (%) of nitroblue tetrazolium reduction activity ([1]; concentration 10^−12 M): 6.4 ± 1.1%

SMILES: C=C1/C(=C\C=C2/CCC[C@]3(C)[C@@H]([C@H](C)CCCC(C)(C)O)CC[C@@H]23)C[C@@H](O)C[C@@H]1O [1α,25-(OH)2VD3, 1α,25-dihydroxyvitamin D3, reference compound]
Positive cells (%) of nitroblue tetrazolium reduction activity ([1]; concentration 10^−7 M): 96.5 ± 1.0%
Positive cells (%) of nitroblue tetrazolium reduction activity ([1]; concentration 10^−8 M): 86.1 ± 2.6%
Positive cells (%) of nitroblue tetrazolium reduction activity ([1]; concentration 10^−9 M): 36.8 ± 2.0%
Positive cells (%) of nitroblue tetrazolium reduction activity ([1]; concentration 10^−10 M): 4.3 ± 1.2%

Binding Affinity for VDR [2]: 160
SMILES: C=C1/C(=C\C=C2/CCC[C@]3(C)[C@@H]([C@@H](C)CCCC(C)(C)O)CC[C@@H]23)C[C@@H](O)[C@@H](C)[C@@H]1O [Compound (68), (20S)-1α,25-dihydroxy-2β-methyl-3β-vitamin D3]
Positive cells (%) of nitroblue tetrazolium reduction activity ([1]; concentration 10^−9 M): 95.7 ± 1.0%
Positive cells (%) of nitroblue tetrazolium reduction activity ([1]; concentration 10^−10 M): 57.7 ± 5.0%
Positive cells (%) of nitroblue tetrazolium reduction activity ([1]; concentration 10^−11 M): 2.8 ± 0.7%
Positive cells (%) of nitroblue tetrazolium reduction activity ([1]; concentration 10^−12 M): 1.7 ± 0.3%

SMILES: C=C1C(=CC=C2CCCC3(C)C2CCC3C(C)CCCC(C)(C)O)CC(O)C(C)C1O [Compound (3), (20R)-1β,25-dihydroxy-2β-methyl-3β vitamin D3, reference compound]
Binding Affinity for VDR [2]: 0.8

SMILES: C=C1C(=CC=C2CCCC3(C)C2CCC3C(C)CCCC(C)(C)O)CC(O)C(C)C1O [Compound (7), (20R)-1β,25-dihydroxy-2α-methyl-3α vitamin D3, reference compound]
Binding Affinity for VDR [2]: 0.06

SMILES: C=C1C(=CC=C2CCCC3(C)C2CCC3C(C)CCCC(C)(C)O)CC(O)C(C)C1O [Compound (6), (20R)-1α,25-dihydroxy-2α-methyl-3α vitamin D3, reference compound]
Binding Affinity for VDR [2]: 4

SMILES: C=C1C(=CC=C2CCCC3(C)C2CCC3C(C)CCCC(C)(C)O)CC(O)C(C)C1O [Compound (1), (20R)-1β,25-dihydroxy-2β-methyl-3β vitamin D3, reference compound]
Binding Affinity for VDR [2]: 0.05

Binding Affinity for VDR [2]: 0.03
SMILES: C=C1/C(=C\C=C2/CCC[C@]3(C)[C@@H]([C@@H](C)CCCC(C)(C)O)CC[C@@H]23)C[C@@H](O)[C@@H](C)[C@H]1O [Compound (69), (20S)-1β,25-dihydroxy-2β-methyl-3β-vitamin D3]

Binding Affinity for VDR [2]: 0.08
SMILES: C=C1/C(=C\C=C2/CCC[C@]3(C)[C@@H]([C@@H](C)CCCC(C)(C)O)CC[C@@H]23)C[C@H](O)[C@@H](C)[C@@H]1O [Compound (70), (20S)-1α,25-dihydroxy-2β-methyl-3α-vitamin D3]

Binding Affinity for VDR [2]: 0.03
SMILES: C=C1/C(=C\C=C2/CCC[C@]3(C)[C@@H]([C@@H](C)CCCC(C)(C)O)CC[C@@H]23)C[C@H](O)[C@H](C)[C@H]1O [Compound (75), (20S)-1β,25-dihydroxy-2α-methyl-3α-vitamin D3]

SMILES: C=C1C(=CC=C2CCCC3(C)C2CCC3C(C)CCCC(C)(C)O)CC(O)C(C)C1O [Compound (65), (20R)-1α,25-dihydroxy-2β-methyl-3β vitamin D3, reference compound]
Binding Affinity for VDR [2]: 13

Binding Affinity for VDR [2]: 7
SMILES: C=C1/C(=C\C=C2/CCC[C@]3(C)[C@@H]([C@@H](C)CCCC(C)(C)O)CC[C@@H]23)C[C@H](O)[C@@H](C)[C@H]1O [Compound (71), (20S)-1β,25-dihydroxy-2β-methyl-3α-vitamin D3]
Positive cells (%) of nitroblue tetrazolium reduction activity ([1]; concentration 10^−9 M): 40.5 ± 1.8%
Positive cells (%) of nitroblue tetrazolium reduction activity ([1]; concentration 10^−10 M): 2.0 ± 1.0%
Positive cells (%) of nitroblue tetrazolium reduction activity ([1]; concentration 10^−11 M): 1.8 ± 0.8%
Positive cells (%) of nitroblue tetrazolium reduction activity ([1]; concentration 10^−12 M): 1.5 ± 0.8%

SMILES: C=C1C(=CC=C2CCCC3(C)C2CCC3C(C)CCCC(C)(C)O)CC(O)C(C)C1O [Compound (2), (20R)-1α,25-dihydroxy-2β-methyl-3α vitamin D3, reference compound]
Binding Affinity for VDR [2]: 0.3
